Our source for the GI50 and IC50 values is patent US11414429B2, “Compound or pharmaceutically acceptable salt thereof” (RIKEN, priority 2016, dated 2022).

Assay [1] has as its system human colorectal cancer cell line, COLO-320DM. The assay can be described thus: Cell proliferation inhibitory activity test (Celltiter-Glo Luminescent Cell Viability Assay). Format: cell-based. The note with it: COLO-320DM cells, 96 hours, class symbols, read-out: COLO-320 DM (cell proliferation inhibitory activity, GI50 value). In short, it runs like this: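 GI50 is taken as the concentration halving cell growth versus 1% DMSO control, measured by ATP luminescence. Compound exposure lasted 96 h at 37° C. under 5% CO2, after overnight seeding in RPMI-1640 with 10% FBS and 2 mM glutamine.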
For orientation: Cellular ATP, detected with luciferase, serves as a proxy for viable cell number.

A further assay addresses T1, tankyrase 2 (TNKS 2) (Homo sapiens, UniProt Q9H2K2).
T1 construct: 613-1, 116aa; made in house; host or cells: cell-free protein synthesis system
The assay can be described thus: Tankyrase inhibitory activity test (ELISA, self-polyADP ribosylation), tankyrase 2. Format: biochemical. The procedure, abridged: (§1)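 IC50 was fitted to residual self-polyADP-ribosylation activity, detected by HRP-streptavidin chemiluminescence. Plate-bound Flag fusions (TNKS1 1,024-1,327aa SAM+PARP; TNKS2 613-1,116aa ANK5+SAM+PARP, cell-free synthesized) saw compound for 10 min at room temperature in 50 mM Tris-HCl pH 8.0, 4 mM MgCl2, 0.2 mM DTT. Reaction with 225 μM NAD/25 μM 6-biotin-17-NAD solution ran 45 min at 30 °C.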
In general terms: ELISA stands for enzyme-linked immunosorbent assay.

The target of another assay is T2, tankyrase 1 (TNKS 1) (Homo sapiens, UniProt O95271).
T2 construct: 1,024-1,327aa; made in house; host or cells: cell-free protein synthesis system
T2 sequence (O95271 1024-1327): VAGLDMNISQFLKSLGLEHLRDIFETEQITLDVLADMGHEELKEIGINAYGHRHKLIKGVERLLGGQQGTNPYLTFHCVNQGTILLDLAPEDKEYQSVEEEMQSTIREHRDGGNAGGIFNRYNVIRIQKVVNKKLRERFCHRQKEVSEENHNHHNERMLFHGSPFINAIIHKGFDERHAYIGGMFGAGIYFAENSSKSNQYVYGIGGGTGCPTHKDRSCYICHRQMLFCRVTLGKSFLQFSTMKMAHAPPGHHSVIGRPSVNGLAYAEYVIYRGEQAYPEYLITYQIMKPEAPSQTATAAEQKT
The experiment in a line: Tankyrase inhibitory activity test (ELISA, self-polyADP ribosylation), tankyrase 1. Format: biochemical. The procedure, abridged: as §1

The mark [2] stands for this setting: ELISA, self-polyADP ribosylation, class symbols, read-out: TNKS2 (inhibitory activity against tankyrase 2, IC50 value).
The mark [3] stands for this setting: ELISA, self-polyADP ribosylation, class symbols, read-out: TNKS1 (inhibitory activity against tankyrase 1, IC50 value).

Read-outs that look alike come from different tables or passages of the source.

T1 sequence (Q9H2K2 613-1166): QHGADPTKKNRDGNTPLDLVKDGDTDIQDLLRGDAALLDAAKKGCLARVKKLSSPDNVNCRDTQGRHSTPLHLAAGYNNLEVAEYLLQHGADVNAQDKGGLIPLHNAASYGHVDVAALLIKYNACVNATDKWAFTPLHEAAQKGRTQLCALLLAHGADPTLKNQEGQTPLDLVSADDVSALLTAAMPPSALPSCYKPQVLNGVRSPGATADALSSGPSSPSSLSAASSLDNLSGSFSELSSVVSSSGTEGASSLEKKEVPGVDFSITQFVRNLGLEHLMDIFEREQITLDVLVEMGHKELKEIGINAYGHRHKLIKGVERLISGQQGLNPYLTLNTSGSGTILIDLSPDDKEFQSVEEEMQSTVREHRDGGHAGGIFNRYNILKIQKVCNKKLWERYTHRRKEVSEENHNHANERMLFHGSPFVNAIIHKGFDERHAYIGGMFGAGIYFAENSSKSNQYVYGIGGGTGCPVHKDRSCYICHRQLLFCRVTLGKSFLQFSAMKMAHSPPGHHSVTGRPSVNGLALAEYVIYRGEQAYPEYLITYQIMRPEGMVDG

What is called IC50 is the point on the concentration scale where inhibition reaches its midpoint. On to `CN1C(=O)C2(CCN(c3nc4c(c(=O)[nH]3)CCCN4)CC2)c2c(Cl)ccc(OC3CCOC3)c21` (stereo not drawn) [Example 438, 4-chloro-1′-(4-oxo-3,4,5,6,7,8-hexahydro-pyrido[2,3-d]pyrimidin-2-yl)-1-methyl-7-(oxo-lan-3-yloxy)spiro [indole-3,4′-piperidine]-2-one], for which, in assay [1], the GI50 was 600 to 1000 nM. The IC50 on tankyrase 2 (TNKS 2) (setting [2]) and at tankyrase 1 (TNKS 1) (setting [3]) was less than 20 nM each time.
As for `CN1CCCc2c1nc(N1CCC3(CC1)OC(=O)c1cc(N4CCN(CC(C)(C)O)CC4)cc(F)c13)[nH]c2=O` [Example 439, 4-fluoro-1′-(4-hydroxy-8-methyl-6,7-dihydro-5H-pyrido[2,3-d]pyrimidin-2-yl)-6-[4-(2-hydroxy-2-methyl-propyl)piperazin-1-yl] spiro[2,3-benzofuran-3,4′-piperidine]-1-one], the GI50 in assay [1] fell in the range of 100 to 600 nM. Moreover, the IC50 on tankyrase 2 (TNKS 2) (setting [2]) and at tankyrase 1 (TNKS 1) (setting [3]) was less than 20 nM in each case.
For `CN1CCCc2c1nc(N1CCC3(CC1)OC(=O)c1cc(N4CCN(CCO)CC4)cc(F)c13)[nH]c2=O` [Example 440, 4-fluoro-6-[4-(2-hydroxyethyl)piper-azin-1-yl]-1′-(4-hydroxy-8-methyl-6,7-dihydro-5H-pyrido[2,3-d]pyrimi-din-2-yl)spiro[2-benzofuran-3,4′-piperidine]-1-one], the GI50 in assay [1] lay in the range of 100 to 600 nM. Further, the IC50 on tankyrase 2 (TNKS 2) (setting [2]) and on tankyrase 1 (TNKS 1) (setting [3]) was less than 20 nM each time.
With `COc1ccc(Cl)c2c1N(CCN1CCN(C(C)=O)CC1)C(=O)C21CCN(c2nc3c(c(=O)[nH]2)CCCN3C)CC1` [Example 441, 1-[2-(4-acetylpiper-azin-1-yl)ethyl]-4-chloro-1′-(4-hy-droxy-8-methyl-6,7-dihydro-5H-py-rido[2,3-d]pyrimi-din-2-yl)-7-methoxy-spiro[indole-3,4′-piperidine]-2-one], in assay [1], the GI50 lay within 100 to 600 nM. The IC50 on tankyrase 2 (TNKS 2) (setting [2]) was less than 20 nM; at tankyrase 1 (TNKS 1) (setting [3]), 20 to 200 nM.
Consider `CN1CCCc2c1nc(N1CCC3(CC1)C(=O)N(C)c1cc(OCP(=O)(O)O)cc(F)c13)[nH]c2=O` [Example 442, ({[4-fluoro-1-methyl-1′-(8-methyl-4-oxo-3,4,5,6,7,8-hexahydropyrido[2,3-d]pyrimidin-2-yl)-2-oxospiro[indoline-3,4′-piperidine]-6-yl]oxy}methyl) phosphonic Acid], for which the GI50 in assay [1] fell in the range of 600 to 1000 nM. The IC50 against tankyrase 2 (TNKS 2) and against tankyrase 1 (TNKS 1) was 20 to 200 nM in each case.
Take `COc1ccc(Cl)c2c1N(CC(F)(F)F)C(=O)C21CCN(c2nc3c(c(=O)[nH]2)CCCN3)CC1` [Example 443, 4-chloro-1′-(4-hy-droxy-3,5,6,7,8-tetra-hydropyrido[2,3-d]pyrimidin-2-yl)-7-methoxy-1-(2,2,2-trifluoroeth-yl)spiro[indole-3,4′-piperidine]-2-one]: the GI50 in assay [1] lay in the range of 600 to 1000 nM. The IC50 on tankyrase 2 (TNKS 2) (setting [2]) and at tankyrase 1 (TNKS 1) (setting [3]) was less than 20 nM throughout.
On to `CN1CCN(c2ccc(-c3cc(F)c4c(c3)C(=O)OC43CCN(c4nc5c(c(=O)[nH]4)CCCN5C)CC3)cc2)CC1` [Example 444, 4-fluoro-1′-(4-hy-droxy-8-methyl-6,7-dihydro-5H-pyrido [2,3-d]pyrimidin-2-yl)-6-[4-(4-meth-ylpiperazin-1-yl)phenyl]spiro[2-benzofuran-3,4′-piperidine]-1-one], for which the GI50 in assay [1] was in the range of 100 to 600 nM. The IC50 at tankyrase 2 (TNKS 2) (setting [2]) and at tankyrase 1 (TNKS 1) (setting [3]) was 20 to 200 nM in each case.
`COc1ccc(Cl)c2c1N(CCC(=O)N1CCn3c(C(F)(F)F)cnc3C1)C(=O)C21CCN(c2nc3c(c(=O)[nH]2)CCCN3C)CC1` [Example 445, 4-chloro-1′-(4-hy-droxy-8-methyl-6,7-dihdyro-5H-py-rido[2,3-d]pyrimi-din-2-yl)-7-meth-oxy-1-[3-oxo-3-[3-(trifluoromethyl)-6,8-dihydro-5H-imidazo[1,2-a]py-razin-7-yl]propyl] spiro[indole-3,4′-piperidine]-2-one]: the GI50 in assay [1] is 100 to 600 nM. The IC50 at tankyrase 2 (TNKS 2) (setting [2]) and on tankyrase 1 (TNKS 1) (setting [3]) was less than 20 nM in each case.
Consider `COc1ccc(Cl)c2c1N(CC(C)(C)O)C(=O)C21CCN(c2nc3c(c(=O)[nH]2)CCCN3C)CC1` [Example 446, 4-chloro-1′-(4-hy-droxy-8-methyl-6,7-dihydro-5H-py-rido[2,3-d]pyrimi-din-2-yl)-1-(2-hy-droxy-2-methyl-propyl)-7-methoxy-spiro[indole-3,4′-piperidine]-2-one], for which, in assay [1], the GI50 is less than 100 nM. Further, the IC50 at tankyrase 2 (TNKS 2) (setting [2]) and on tankyrase 1 (TNKS 1) (setting [3]) was less than 20 nM in each case.
Consider `CN1CCCc2c1nc(N1CCC3(CC1)C(=O)N(CC(C)(C)O)c1cccc(F)c13)[nH]c2=O` [Example 447, 4-fluoro-1′-(4-hy-droxy-8-methyl-6,7-dihydro-5H-py-rido[2,3-d]pyrimidin-2-yl)-1-(2-hydroxy-2-methylpro-pyl)spiro[indole-3,4′-piperidine]-2-one], for which, in assay [1], the GI50 was less than 100 nM. Moreover, the IC50 at tankyrase 2 (TNKS 2) (setting [2]) and on tankyrase 1 (TNKS 1) (setting [3]) was less than 20 nM throughout.
For the compound `COc1ccc(Cl)c2c1N(CC(C)(C)O)C(=O)C21CCN(c2nc3c(c(=O)[nH]2)CCCN3)CC1` [Example 448], the GI50 in assay [1] fell in the range of 100 to 600 nM. Further, the half-maximal inhibitory concentration (IC50) on tankyrase 2 (TNKS 2) (setting [2]) and at tankyrase 1 (TNKS 1) (setting [3]) was less than 20 nM in each case.
As to `CN(C)c1ccc(-c2cc(F)c3c(c2)C(=O)OC32CCN(c3nc4c(c(=O)[nH]3)CCCN4C)CC2)cc1` [Example 449, 6-[4-(dimethylami-no)phenyl]-4-fluoro-1′-(4-hydroxy-8-methyl-6,7-di-hydro-5H-pyrido[2,3-d]pyrimidin-2-yl)spiro[2-benzo-furan-3,4′-piperidine]-1-one], the GI50 in assay [1] was in the range of 100 to 600 nM. For the same compound, the IC50 at tankyrase 2 (TNKS 2) (setting [2]) and at tankyrase 1 (TNKS 1) (setting [3]) was 20 to 200 nM throughout.
With `CN1CCCc2c1nc(N1CCC3(CC1)OC(=O)c1cc(-c4cnn(C)c4)cc(F)c13)[nH]c2=O` [Example 450, 4-fluoro-1′-(4-hy-droxy-8-methyl-6,7-dihydro-5H-py-rido[2,3-d]pyrimidin-2-yl)-6-(1-meth-ylpyrazol-4-yl)spiro [2-benzofuran-3,4′-piperidine]-1-one], the GI50 in assay [1] is less than 100 nM. The IC50 at tankyrase 2 (TNKS 2) (setting [2]) and at tankyrase 1 (TNKS 1) (setting [3]) was less than 20 nM each time.
As to `O=C1N(CC(F)(F)F)c2cccc(F)c2C12CCN(c1nc3c(c(=O)[nH]1)CCCN3)CC2` [Example 451, 4-fluoro-1′-(4-hy-droxy-5,6,7,8-tetra-hydropyrido[2,3-d]pyrimidin-2-yl)-1-(2,2,2-trifluoro-ethyl)spiro[indole-3,4′-piperidine]-2-one], the GI50 in assay [1] was 100 to 600 nM. The IC50 at tankyrase 2 (TNKS 2) (setting [2]) and at tankyrase 1 (TNKS 1) (setting [3]) was less than 20 nM each time.
Regarding `CC(C)(O)CN1C(=O)C2(CCN(c3nc4c(c(=O)[nH]3)CCCN4)CC2)c2c(F)cccc21` [Example 452, 4-fluoro-1-(2-hy-droxy-2-methyl-propyl)-1′-(4-hydroxy-5,6,7,8-tetra-hydropyrido[2,3-d]pyrimidin-2-yl)spiro [indole-3,4′-piper-idine]-2-one], in assay [1], the GI50 fell in the range of 100 to 600 nM. For the same compound, the IC50 was less than 20 nM at tankyrase 2 (TNKS 2) (setting [2]) and 20 to 200 nM at tankyrase 1 (TNKS 1) (setting [3]).
On the same counts, the results for `CNS(=O)(=O)COc1cc(F)c2c(c1)N(C)C(=O)C21CCN(c2nc3c(c(=O)[nH]2)CCCN3C)CC1` [Example 453, 1-{[4-fluoro-1-meth-yl-1′-(8-methyl-4-oxo-3,4,5,6,7,8-hexahydropyrido [2,3-d]pyrimidin-2-yl)-2-oxospiro [indole-3,4′-piperi-dine]-6-yl]oxy}-N-methylmethane sulfonamide] are 100 to 600 nM, less than 20 nM and less than 20 nM.
On the same counts, the results for `CN1CCCc2c1nc(N1CCC3(CC1)C(=O)N(C)c1cc(OCS(N)(=O)=O)cc(F)c13)[nH]c2=O` [Example 454, 1-{[4-fluoro-1-meth-yl-1′-(8-methyl-4-oxo-3,4,5,6,7,8-hexahydropyrido [2,3-d]pyrimidin-2-yl)-2-oxospiro[indole-3,4′-piperidine]-6-yl]oxy}meth-anesulfonamide] are 100 to 600 nM, less than 20 nM and less than 20 nM.
Taken in the same sequence, the figures for `CN1CCCc2c1nc(N1CCC3(CC1)C(=O)N(C)c1cc(N4CCS(=O)(=O)CC4)cc(F)c13)[nH]c2=O` [Example 455, 6-(1,1-dioxdothio-morpholino)-4-fluoro-1-methyl-1′-(8-methyl-4-oxo-3,4,5,6,7,8-hexa-hydropyrido[2,3-d]pyrimidin-2-yl)spiro [indole-3,4′-piperi-dine]-2-one] were 100 to 600 nM, less than 20 nM and less than 20 nM.
Regarding `CC(=O)NS(=O)(=O)COc1cc(F)c2c(c1)N(C)C(=O)C21CCN(c2nc3c(c(=O)[nH]2)CCCN3C)CC1` [Example 456, N-[[4-fluoro-1-meth-yl-1′-(8-methyl-4-oxo-3,4,5,6,7,8-hexahydropyrido [2,3-d]pyrimidin-2-yl)-2-oxospiro [indole-3,4′-piperi-dine]-6-yl]oxymeth-ylsulfonyl]aceta-mide], the GI50 in assay [1] lay in the range of 100 to 600 nM. For the same compound, the IC50 at tankyrase 2 (TNKS 2) (setting [2]) and on tankyrase 1 (TNKS 1) (setting [3]) was less than 20 nM throughout.
